Experimental data as given in patent publication US20210003556A1, “IMPROVING ANTI-PD-1 CANCER THERAPY” (Mayo Foundation for Medical Education and Research, priority 2018, published 2021).

Key:
CX3CR1^+ CD8^+ T cells [1] = type: cell-based, human
Protocol: FIG. 7 is a graph plotting CX3CR1^+ CD8^+ and CX3CR1^− CD8^+ T cell survival during treatment with doxorubicin (Dox) in vitro. […] N=4 donors.
(§1) Stimulation and culture of human T cells: Human CD8^+ T cells were purified using a human CD8^+ T cell enrichment kit (Stemcell). CD8^+ T cells were incubated with chemotherapy drugs (paclitaxel, carboplatin, or doxorubicin), either alone or with T cell activators (DYNABEADS®, human T-activator CD3/CD28 beads) for 24-48 hours, followed with staining for CX3CR1 and Granzyme B. ABCB1 inhibitor PGP4008 was purchased from Enzo Life Sciences (Farmingdale, N.Y.).
To determine the effect of chemotherapeutic treatment on survival of CX3CR1^+ and CX3CR1^− CD8^+ T cells, subsets of these cells were isolated, placed in 96 well plates at 2×10^5 cells/well, and incubated with doxorubicin (Dox) at 0.5 μg/ml for 40 hours.

CX3CR1^+ CD8^+ T cells [2] = test: CTL function (CD107a expression, IFN-γ production) of CD8+ T cells with ABCB1 inhibitor with or without CP; type: cell-based, human; details: anti-CD3/CD28 beads 24 hours
Protocol: as §1
Since the pharmacodynamics of doxorubicin may not be able to exactly reflect the efflux of carboplatin and paclitaxel (CP), and these drugs cannot be directly tracked due to lack of fluorescent capability, the impact of the drug transporter inhibitor on the function of T cells in the presence of CP was examined to determine whether T cell function might be dampened due to the reduced ability of T cells to efflux CP. ABCB1 transporter inhibitor (PGP4008) was incubated with resting or activated human primary CD8^+ T cells in vitro in the presence of CP. T cell function was measured by based pm degranulation (CD107a expression) and intracellular IFN-γ production.

CX3CR1^+ CD8^+ T cells [3] = test: IL-15 treatment of human PBMC in vitro (proliferation/expansion of CX3CR1+ CD8+ T cells); type: cell-based
Protocol: FIG. 8A is a flow cytometry plot showing representative CD122 expression by CX3CR1^+ CD8^+ T cells. FIG. 8B is a graph plotting CD122 expression by CX3CR1^+ and CX3CR1^− CD8^+ T cells in PBMC after incubation with PHA-L for 48 hours. […] FIG. 8C is a graph plotting proliferation of CX3CR1^+ CD8^+ T cells treated in vitro with human IL-15 for 48 hours.
FIG. 9 is a graph plotting % CX3CR1^+ Granzyme CD8^+ T cells among human peripheral blood mononuclear cells (PBMC) cultured with graded concentrations of rh-IL-15 for 24 hours in vitro.
For at least a couple of reasons, IL-15 may improve anti-PD-1 therapy for non-responsive tumors. First, the transcription of CD122 (IL-2 receptor beta) was increased in CD11a^high CD8^+ T cells in responders 25 compared to non-responders (FIG. 1B). […] Further, human PBMC were incubated with human IL-15 (10 ng/ml) or anti-CD3/CD28 beads for 48 hours, and proliferation of CX3CR1^+ CD8^+ T cells was assessed based on % Ki67^+ cells.
To test whether IL-15 directly contributes to the expansion of CX3CR1^+ Granzyme B^+ CD8^+ T cells, human recombinant IL-15 was incubated for 24 hours with PBMC isolated from healthy human donors, followed by flow cytometry analysis of CX3CR1^+ Granzyme B^+ CD8^+ T cells. […] Thus, IL-15 may improve the efficacy of PD-1 ICI therapy by expanding CX3CR1^+ Granzyme B^+ CD8^+ T cells that are capable of rejecting tumors.

metastatic melanoma = test: Salvage chemotherapy added to anti-PD-1 in metastatic melanoma patients who failed PD-1 blockade; type: in vivo, human; details: BRAF wild-type metastatic melanoma; pembrolizumab alone, then carboplatin and paclitaxel added, assessed three weeks after the combination
Protocol: FIGS. 2A to 2C show patient responses to CIT with an increase of CX3CR1^+ Granzyme B^+ CD8^+ T cells. […] Given the disease progression while on pembrolizumab, paclitaxel, and carboplatin (white arrows) were initiated at 175 mg/m^2 and an AUC (area under curve) of 5 every 3 weeks for 2 cycles in combination with pembrolizumab. The patient received total of 12 cycles of pembrolizumab at the end of the follow up. FIG. 2B is a pair of flow cytometry plots showing CX3CR1 levels pre- and post-chemo, as indicated. Following the same schedule of treatment as in FIG. 2A, blood samples were collected for flow analysis of CX3CR1^+ Granzyme B^+ among CD11a^highCD8^+ T cells. […]
Patient information: The studies described herein were conducted according to Declaration of Helsinki principles. […] Response to treatment was evaluated according to standard clinical practice guidelines using Response Evaluation Criteria In Solid Tumors (RECIST) criteria. […]
The frequency of CX3CR1^+ Granzyme B^+ CD8^+ tumor-reactive T cells was examined before and after chemotherapy combined with anti-PD-1 therapy in patients with metastatic melanoma. […] The frequency of CX3CR1^+ Granzyme B^+ cells also was measured and compared in other responders and non-responders prior to and after chemotherapy. […]

Bim^+ CD8^+ T cells = test: % Bim+ CD8+ T cells in peripheral blood of metastatic melanoma patients after PD-1 ICI therapy; type: in vivo, human; details: 12 weeks after anti-PD-1 therapy; responders vs non-responders, first cohort
Text: FIGS. 15A to 15D illustrate changes in Bim^+ CD8^+ T cells in response to PD-1 ICI therapy in patients with MM. FIG. 15A is a graph plotting percentages of changes in the frequency (%) of Bim^+ CD8^+ T cells in MM patients with progressive diseases (P, n=7) and responders (R, n=6) at 12-weeks after PD-1 therapy. **P<0.01, error bars, median with interquartile ranges. FIG. 15B is a series of images of metastatic melanoma (white arrows) in one patient with pseudo-progression at 12 weeks after PD-1 therapy. FIG. 15C is a graph plotting % Bim^+ CD8^+ T cells of the patient of FIG. 15B at baseline, 12 weeks, and 16 weeks after PD-1 therapy. FIG. 15D is a graph plotting the % change of Bim^+ CD8^+ T cells in a second cohort of melanoma patients (total 38) at 12 weeks after PD-1 therapy.
Further studies were conducted to examine and compare the frequency of Bim^+ cells among circulating CD11a^high CD8^+ T cells, since this population of T cells is enriched with tumor-reactive T cells (Liu et al., Oncoimmunology, 2013, 2:e23972). […] In addition, Bim levels (MFI) were positively correlated with PD-1 levels among CD11a^high CD8^+ T cells of cancer patients (FIG. 14B, P<0.01; Duraiswamy et al., J Immunol, 2011, 186:4200-4212). […] Therefore, measurement of the frequency of Bim^+ CD8^+ T cells can be used to the degree to which PD-1 signals have been blocked in cancer patients. […]

## O=C(Cc1ccccc1)Nc1c2c(nc3ccccc13)N(Cc1ccccc1)CC2 [PGP4008]
CX3CR1^+ CD8^+ T cells [1]; cultured with Doxorubicin 0.5 μg/ml for 40 hours plus PGP4008
  apoptosis of CX3CR1+ CD8+ T cells after addition of ABCB1 inhibitor: increased apoptosis
CX3CR1^+ CD8^+ T cells [2]; in the absence of CP
  function of CX3CR1+ CD8+ T cells (CD107a expression, IFN-γ production): not in the absence of CP
CX3CR1^+ CD8^+ T cells [2]; in the presence of CP (carboplatin and paclitaxel)
  function of CX3CR1+ CD8+ T cells (CD107a expression, IFN-γ production): significantly inhibited the function

## COc1cccc2c1C(=O)c1c(O)c3c(c(O)c1C2=O)C[C@@](O)(C(=O)CO)C[C@@H]3O[C@H]1C[C@H](N)[C@H](O)[C@H](C)O1 [doxorubicin]
CX3CR1^+ CD8^+ T cells [1]; human, 40 h, 0.5 μg/ml
  apoptosis (Annexin V) of CD8+ T cells: fewer CX3CR1^+ CD8^+ T cells (efflux cells) than CX3CR1^− CD8^+ T cells (non-efflux cells) underwent apoptosis
  percentage of Dox+/annexin V low (live) cells: higher in the CX3CR1^+ subset of CD8^+ T cells than in the CX3CR1^− CD8^+ subset

## human IL-15: human recombinant interleukin-15
CX3CR1^+ CD8^+ T cells [3]; graded concentrations of rh-IL-15, 24 hours, healthy human donors
  expansion of CX3CR1+ Granzyme B+ CD8+ T cells among PBMC: significantly increased the expansion
CX3CR1^+ CD8^+ T cells [3]; human PBMC, human IL-15 10 ng/ml, 48 hours
  proliferation of CX3CR1+ CD8+ T cells (% Ki67+ cells): increased proliferation

## pembrolizumab: anti-PD-1 antibody
Metastatic melanoma
  disease status (PET/CT) in one patient: rapid progression of metastatic melanoma in the peritoneum and liver
Bim^+ CD8^+ T cells
  % Bim+ CD8+ T cells: significantly decreased in responders compared to non-responders
